Measurements published in ChEMBL document CHEMBL5120938, “Development of BET Inhibitors as Potential Treatments for Cancer: Optimization of Pharmacokinetic Properties” (ACS Med Chem Lett, 2022).

Tests used:
[1] = target: Bromodomain-containing protein 4 (Homo sapiens, UniProt O60885); assay: Inhibition of N-terminal His6-tagged recombinant human BRD4 (44 to 168 residues) expressed in Escherichia coli BL21 (DE3) incubated for 60 mins by TR-FRET assay
[2] = Inhibition of c-MYC expression in human JJN-3R cells measured after 4 hrs; format: functional, cell-based
[3] = Antiproliferative activity against human JJN-3R cells assessed as inhibition of cell proliferation measured after 72 hrs by MTS assay; format: functional, cell-based
[4] = Metabolic stability in alamethicin treated human liver microsomes assessed as half life pretreated for 5 mins followed by NADPH addition and measured up to 45 mins by LC-MS/MS analysis; format: ADME, Microsome; conditions: time < 50 min
[5] = Metabolic stability in alamethicin treated Sprague-Dawley rat liver microsomes assessed as half life pretreated for 5 mins followed by NADPH addition and measured up to 45 mins by LC-MS/MS analysis; format: ADME, Microsome; conditions: time < 50 min
[6] = Metabolic stability in alamethicin treated CD-1 mouse liver microsomes assessed as half life pretreated for 5 mins followed by NADPH addition and measured up to 45 mins by LC-MS/MS analysis; format: ADME, Microsome; conditions: time < 50 min
[7] = Metabolic stability in alamethicin treated Beagle dog liver microsomes assessed as half life pretreated for 5 mins followed by NADPH addition and measured up to 45 mins by LC-MS/MS analysis; format: ADME, Canis lupus familiaris, Microsome; conditions: time < 50 min
[8] = Metabolic stability in alamethicin treated cynomologus monkey liver microsomes assessed as half life pretreated for 5 mins followed by NADPH addition and measured up to 45 mins by LC-MS/MS analysis; format: ADME, Macaca fascicularis, Microsome; conditions: cynomolgus monkey, time < 50 min
[9] = Metabolic stability in alamethicin treated human liver microsomes assessed as half life pretreated for 5 mins followed by UDPGA addition and measured up to 45 mins by LC-MS/MS analysis; format: ADME, Microsome; conditions: time < 50 min
[10] = Metabolic stability in alamethicin treated Sprague-Dawley rat liver microsomes assessed as half life pretreated for 5 mins followed by UDPGA addition and measured up to 45 mins by LC-MS/MS analysis; format: ADME, Microsome; conditions: time < 50 min
[11] = Metabolic stability in alamethicin treated CD-1 mouse liver microsomes assessed as half life pretreated for 5 mins followed by UDPGA addition and measured up to 45 mins by LC-MS/MS analysis; format: ADME, Microsome; conditions: time < 50 min
[12] = Metabolic stability in alamethicin treated Beagle dog liver microsomes assessed as half life pretreated for 5 mins followed by UDPGA addition and measured up to 45 mins by LC-MS/MS analysis; format: ADME, Canis lupus familiaris, Microsome; conditions: Beagle, liver microsomes, time < 50 min
[13] = Metabolic stability in alamethicin treated cynomologus monkey liver microsomes assessed as half life pretreated for 5 mins followed by UDPGA addition and measured up to 45 mins by LC-MS/MS analysis; format: ADME, Macaca fascicularis, Microsome; conditions: cynomolgus monkey, time < 50 min
[14] = Efflux ratio of apparent permeability across […] in human Caco-2 cells after 2 hrs by liquid scintillation counting analysis; format: ADME, cell-based; conditions: caco-2, 2 h
[15] = Drug metabolism in human hepatocytes assessed as glucuronidation of the compound at 5 uM measured after 1 hr by LC/UV/MS analysis; format: ADME, cell-based, Hepatocyte
[16] = Drug metabolism in human hepatocytes assessed as oxidative metabolite formation at 5 uM measured after 1 hr by LC/UV/MS analysis; format: ADME, cell-based, Hepatocyte
[17] = Volume of distribution in mouse at 5 mg/kg, po or 1.75 mg/kg, iv; format: ADME, organism-based; conditions: in vivo
[18] = Half life in mouse at 1.75 mg/kg, iv; format: ADME, organism-based; conditions: in vivo
[19] = AUC in mouse at 5 mg/kg, po; format: ADME, organism-based; set-up: dose 5 mg/kg, route po; conditions: in vivo
[20] = Volume of distribution in rat at 5 mg/kg, po or 1 mg/kg, iv; format: ADME, organism-based; conditions: in vivo
[21] = AUC in rat at 5 mg/kg, po; format: ADME, organism-based; set-up: dose 5 mg/kg, route po; conditions: in vivo
[22] = Volume of distribution in dog at 0.3 mg/kg, po or 0.1 mg/kg, iv; format: ADME, organism-based, Canis lupus familiaris; conditions: in vivo
[23] = Oral bioavailability in dog at 0.3 mg/kg; format: ADME, organism-based, Canis lupus familiaris; conditions: in vivo
[24] = AUC in dog at 0.3 mg/kg, po; format: ADME, organism-based, Canis lupus familiaris; set-up: dose 0.3 mg/kg, route po; conditions: in vivo
[25] = Volume of distribution in cynomologus monkey at 0.3 mg/kg, po or 0.1 mg/kg, iv; format: ADME, organism-based, Macaca fascicularis; conditions: cynomolgus monkey, in vivo
[26] = Half life in cynomologus monkey at 0.1 mg/kg, iv; format: ADME, organism-based, Macaca fascicularis; conditions: cynomolgus monkey, in vivo
[27] = Oral bioavailability in cynomologus monkey at 0.3 mg/kg; format: ADME, organism-based, Macaca fascicularis; conditions: cynomolgus monkey, in vivo
[28] = AUC in cynomologus monkey at 0.3 mg/kg, po; format: ADME, organism-based, Macaca fascicularis; set-up: dose 0.3 mg/kg, route po; conditions: cynomolgus monkey, in vivo
[29] = Antitumor activity against human BR1077F cells xenografted in mouse assessed as tumor growth inhibition at 3 mg/kg, po QD treated as 5 days on and 2 days off regimen for 2 weeks starting from 26 days post tumor implantation; format: functional; conditions: 336 h, read-out: TGI
[30] = AUC in mouse xenografted with human BR1077F cells at 3 mg/kg, po QD treated as 5 days on and 2 days off regimen for 2 weeks starting from 26 days post tumor implantation; format: ADME, organism-based; set-up: time 2 weeks, dose 3 mg/kg, route po; conditions: in vivo

SMILES	IC50 [1]	IC50 [2]	IC50 [3]	half-life [4]	half-life [5]	half-life [6]	half-life [7]	half-life [8]	half-life [9]	half-life [10]	half-life [11]	half-life [12]	half-life [13]	Ratio [14]	other results
Cc1nnn(C)c1-c1cnc2c3ccc(C(C)(O)C(F)(F)F)c(F)c3n([C@H](c3ccccc3)C3CCOCC3)c2c1 (stereo partly specified)	3 nM	1.5 nM	9 nM	40 min	49 min	58 min	42 min	49 min	120 min	51 min	120 min	120 min	120 min	1.1	
[2H]C([2H])([2H])c1nnn(C)c1-c1cnc2c3ccc(C(C)(C)O)c(Cl)c3n([C@H](c3ccccc3)C3CCOCC3)c2c1	1.1 nM	1.2 nM	7 nM	56 min	35 min	25 min	35 min	30 min	120 min	6 min	120 min	120 min	120 min	1.2	
[2H]C([2H])([2H])c1nnn(C)c1-c1cnc2c3c(F)cc(C(C)(C)O)cc3n([C@H](c3ccccc3)C3CCOCC3)c2c1	8 nM	4.5 nM	10 nM	63 min	62 min	48 min	40 min	32 min	120 min	120 min	120 min	120 min	120 min	9.7	
Cc1nnn(C)c1-c1cnc2c3ccc(C(C)(C)O)cc3n([C@H](c3ccccc3)C3CCOCC3)c2c1 [EZOBRESIB]		0.7 nM	3.6 nM	33 min	36 min	24 min	20 min	10 min	115 min	61 min	120 min	120 min	120 min	2.6	Drug metabolism [15]: Metabolite_Detected; Drug metabolism [16]: Metabolite_Detected; Vd [17]: 1.9 L/kg; half-life [18]: 114 min; AUC [19]: 18 µM·h; Vd [20]: 4.3 L/kg; AUC [21]: 2 µM·h; Vd [22]: 5.3 L/kg; bioavailability [23]: 59%; AUC [24]: 0.41 µM·h; Vd [25]: 4.2 L/kg; half-life [26]: 120 min; bioavailability [27]: 16%; AUC [28]: 0.085 µM·h; inhibition in vivo at 3 mg/kg [29]: 99%; AUC at 336 h [30]: 2.6 µM·h
